Results from patent publication US20250277012A1 (Protagonist Therapeutics, Inc., priority 2021, published 2025).
Positions of bridges follow the written chain, without caps; N, C: chain ends. Non-standard residues stand in square brackets, D forms with d. Residues, ends and D or L forms follow the SMILES beside them. Groups on a side chain read outwards from the residue. *: point of attachment. X1 = C[N+](C)(CCNC(=O)CCCCCCCCCCCCCCCCC(=O)O)CC(=O)*; X5 = CCCCCCCCCCCCCCCC(=O)NCC[N+](C)(C)CC(=O)*; C18 diacid = O=C(O)CCCCCCCCCCCCCCCCC(=O)*; Dip = N[C@H](C(=O)O)C(c1ccccc1)c1ccccc1; Pro(3S-OH) = O=C(O)[C@H]1NCC[C@@H]1O; Pro(3R-OH) = O=C(O)[C@H]1NCC[C@H]1O; Palmitoyl = CCCCCCCCCCCCCCCC(=O)*; NMeT = CN[C@H](C(=O)O)[C@@H](C)O; β3hF = N[C@H](CC(=O)O)Cc1ccccc1; Aad = N[C@@H](CCCC(=O)O)C(=O)O; NMeK = CN[C@@H](CCCCN)C(=O)O; Tle = CC(C)(C)[C@H](N)C(=O)O; Isovaleryl = CC(C)CC(=O)*; Dap = NC[C@H](N)C(=O)O; AEEA = NCCOCCOCC(=O)O; Ahx = NCCCCCC(=O)O

Target: T1, ferroportin (Homo sapiens, UniProt Q9NP59)
T1 sequence (Q9NP59 1-571): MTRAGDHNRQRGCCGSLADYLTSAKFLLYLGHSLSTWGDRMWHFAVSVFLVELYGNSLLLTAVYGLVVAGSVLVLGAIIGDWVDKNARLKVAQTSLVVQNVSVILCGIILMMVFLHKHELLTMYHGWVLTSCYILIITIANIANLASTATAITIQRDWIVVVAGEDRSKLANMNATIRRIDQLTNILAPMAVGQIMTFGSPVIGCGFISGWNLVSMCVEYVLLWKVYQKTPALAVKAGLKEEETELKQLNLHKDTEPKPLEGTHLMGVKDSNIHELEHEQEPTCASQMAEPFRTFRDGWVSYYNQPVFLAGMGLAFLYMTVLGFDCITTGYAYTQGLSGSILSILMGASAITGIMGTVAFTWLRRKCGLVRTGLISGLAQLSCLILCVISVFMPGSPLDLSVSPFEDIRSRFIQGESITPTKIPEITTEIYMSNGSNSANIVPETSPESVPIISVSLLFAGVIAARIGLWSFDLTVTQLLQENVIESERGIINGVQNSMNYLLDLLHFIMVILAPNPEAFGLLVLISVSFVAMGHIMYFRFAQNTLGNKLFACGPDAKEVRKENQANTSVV
Assay: T47D cell-based ferroportin internalization assay in presence of mouse serum albumin (MSA)
Parameters: a human breast carcinoma adherent cell line which endogenously expresses ferroportin; host or cells: T47D
Conditions: T47D internalization assay in presence of mouse serum albumin (MSA); Table 6E
In short: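 Peptide potency for inducing ferroportin internalization was measured in T47D cells in the presence of serum albumin. Cells grown in RPMI with fetal bovine serum were seeded in 96-well plates at 80-100 k cells per well in 100 ul and rested overnight. Dilution series of test peptides were preincubated 30 min at room temperature, then added to the cells after the medium was aspirated.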

IC50 [nM]	SMILES
10 to 100	COC(=O)CC[C@H](NC(=O)CC(C)C)C(=O)N[C@H](C(=O)N[C@@H](Cc1c[nH]cn1)C(=O)N[C@H](C(=O)N1CCC[C@H]1C(=O)N[C@H]1CSSC[C@@H](C(=O)N(C)[C@@H](CCCCNC(=O)COCCOCCNC(=O)COCCOCCNC(=O)C[N+](C)(C)CCNC(=O)CCCCCCCCCCCCCCCCC(=O)O)C(=O)N[C@H](C(=O)N[C@H](CCCCN)C(N)=O)C(c2ccccc2)c2ccccc2)NC1=O)C(c1ccccc1)c1ccccc1)[C@@H](C)O [compound 230] (Isovaleryl-E(OMe)TH[Dip]PCC[NMeK]([AEEA-AEEA-X1])[Dip][dK]-NH2; disulfide 6-7)
10 to 100	COC(=O)CC[C@H](NC(=O)CC(C)C)C(=O)N[C@H](C(=O)N[C@@H](Cc1c[nH]cn1)C(=O)N[C@H](C(=O)N1CCC[C@H]1C(=O)N[C@H]1CSSC[C@@H](C(=O)N[C@@H](CCCCNC(=O)CCCCCNC(=O)C[N+](C)(C)CCNC(=O)CCCCCCCCCCCCCCCCC(=O)O)C(=O)N[C@H](CC(=O)N[C@H](CCCCN)C(N)=O)Cc2ccccc2)NC1=O)C(c1ccccc1)c1ccccc1)[C@@H](C)O [compound 315] (Isovaleryl-E(OMe)TH[Dip]PCCK([Ahx-X1])[β3hF][dK]-NH2; disulfide 6-7)
10 to 100	CC(C)CC(=O)N[C@@H](CCCC(=O)O)C(=O)N[C@H](C(=O)N[C@@H](Cc1c[nH]cn1)C(=O)N[C@H](C(=O)N1CCC[C@H]1C(=O)N[C@H]1CSSC[C@@H](C(=O)N(C)[C@@H](CCCCNC(=O)COCCOCCNC(=O)COCCOCCNC(=O)[C@H](CN)NC(=O)CCCCCCCCCCCCCCCCC(=O)O)C(=O)N[C@H](CC(=O)N[C@H](CCCCN)C(N)=O)Cc2ccccc2)NC1=O)C(c1ccccc1)c1ccccc1)[C@@H](C)O [compound 244] (Isovaleryl-[Aad]TH[Dip]PCC[NMeK]([AEEA-AEEA-Dap-C18 diacid])[β3hF][dK]-NH2; disulfide 6-7)

Same assay, conditions: Table 6E; T47D internalization assay with MSA

IC50 [nM]	SMILES
10 to 100	COC(=O)CC[C@H](NC(=O)CC(C)C)C(=O)N[C@H](C(=O)N[C@@H](Cc1c[nH]cn1)C(=O)N[C@H](C(=O)N1CCC[C@H]1C(=O)N[C@H]1CSSC[C@@H](C(=O)N[C@H](CCCCNC(=O)CCCCCNC(=O)C[N+](C)(C)CCNC(=O)CCCCCCCCCCCCCCCCC(=O)O)C(=O)N[C@H](C(=O)N[C@H](C(N)=O)C(C)(C)C)C(c2ccccc2)c2ccccc2)NC1=O)C(c1ccccc1)c1ccccc1)[C@@H](C)O [compound 212] (Isovaleryl-E(OMe)TH[Dip]PCC[dK]([Ahx-X1])[Dip][Tle]-NH2; disulfide 6-7)
10 to 100	CC(C)CC(=O)N[C@@H](CCC(=O)O)C(=O)N[C@H](C(=O)N[C@@H](Cc1cnc[nH]1)C(=O)N[C@H](C(=O)N1CCC[C@H]1C(=O)N[C@H]1CSSC[C@@H](C(=O)N(C)[C@@H](CCCCNC(=O)CCCCCNC(=O)C[N+](C)(C)CCNC(=O)CCCCCCCCCCCCCCCCC(=O)O)C(=O)N[C@H](C(=O)N[C@H](CCCCN)C(N)=O)C(c2ccccc2)c2ccccc2)NC1=O)C(c1ccccc1)c1ccccc1)[C@@H](C)O [compound 198] (Isovaleryl-ETH[Dip]PCC[NMeK]([Ahx-X1])[Dip][dK]-NH2; disulfide 6-7)
10 to 100	COC(=O)CC[C@H](NC(=O)CC(C)C)C(=O)N1CC[C@@H](O)[C@H]1C(=O)N[C@@H](Cc1c[nH]cn1)C(=O)N[C@H](C(=O)N1CCC[C@H]1C(=O)N[C@H]1CSSC[C@@H](C(=O)N(C)[C@@H](CCCCNC(=O)CCCCCNC(=O)C[N+](C)(C)CCNC(=O)CCCCCCCCCCCCCCCCC(=O)O)C(=O)N[C@H](C(=O)N[C@H](CCCCN)C(N)=O)C(c2ccccc2)c2ccccc2)NC1=O)C(c1ccccc1)c1ccccc1 [compound 155] (Isovaleryl-E(OMe)[Pro(3R-OH)]H[Dip]PCC[NMeK]([Ahx-X1])[Dip][dK]-NH2; disulfide 6-7)
10 to 100	CC(C)CC(=O)N[C@@H](CCC(=O)O)C(=O)N1CC[C@H](O)[C@H]1C(=O)N[C@@H](Cc1c[nH]cn1)C(=O)N[C@H](C(=O)N1CCC[C@H]1C(=O)N[C@H]1CSSC[C@@H](C(=O)N(C)[C@@H](CCCCNC(=O)CCCCCNC(=O)C[N+](C)(C)CCNC(=O)CCCCCCCCCCCCCCCCC(=O)O)C(=O)N[C@H](C(=O)N[C@H](CCCCN)C(N)=O)C(c2ccccc2)c2ccccc2)NC1=O)C(c1ccccc1)c1ccccc1 [compound 192] (Isovaleryl-E[Pro(3S-OH)]H[Dip]PCC[NMeK]([Ahx-X1])[Dip][dK]-NH2; disulfide 6-7)
1 to 10	CCCCCCCCCCCCCCCC(=O)NCC[N+](C)(C)CC(=O)NCCCC[C@@H](C(=O)N[C@H](C(N)=O)C(c1ccccc1)c1ccccc1)N(C)C(=O)[C@@H]1CSSC[C@H](NC(=O)[C@@H]2CCCN2C(=O)[C@@H](NC(=O)[C@H](Cc2cnc[nH]2)NC(=O)[C@H]([C@@H](C)O)N(C)C(=O)[C@H](CCC(=O)O)NC(=O)CC(C)C)C(c2ccccc2)c2ccccc2)C(=O)N1 [compound 169] (Isovaleryl-E[NMeT]H[Dip]PCC[NMeK](X5)[Dip]-NH2; disulfide 6-7)
10 to 100	COC(=O)CC[C@H](NC(=O)CC(C)C)C(=O)N[C@H](C(=O)N[C@@H](Cc1c[nH]cn1)C(=O)N[C@H](C(=O)N1CCC[C@H]1C(=O)N[C@H]1CSSC[C@@H](C(=O)N[C@H](CCCCNC(=O)CCCCCNC(=O)C[N+](C)(C)CCNC(=O)CCCCCCCCCCCCCCCCC(=O)O)C(=O)N[C@H](C(=O)N[C@H](CCCCN)C(N)=O)C(c2ccccc2)c2ccccc2)NC1=O)C(c1ccccc1)c1ccccc1)[C@@H](C)O [compound 208] (Isovaleryl-E(OMe)TH[Dip]PCC[dK]([Ahx-X1])[Dip][dK]-NH2; disulfide 6-7)
10 to 100	CC(C)CC(=O)N[C@@H](CCC(=O)O)C(=O)N1CC[C@@H](O)[C@H]1C(=O)N[C@@H](Cc1c[nH]cn1)C(=O)N[C@H](C(=O)N1CCC[C@H]1C(=O)N[C@H]1CSSC[C@@H](C(=O)N(C)[C@@H](CCCCNC(=O)CCCCCNC(=O)C[N+](C)(C)CCNC(=O)CCCCCCCCCCCCCCCCC(=O)O)C(=O)N[C@H](C(N)=O)C(c2ccccc2)c2ccccc2)NC1=O)C(c1ccccc1)c1ccccc1 [compound 154] (Isovaleryl-E[Pro(3R-OH)]H[Dip]PCC[NMeK]([Ahx-X1])[Dip]-NH2; disulfide 6-7)
10 to 100	CCCCCCCCCCCCCCCC(=O)NCC[N+](C)(C)CC(=O)NCCCC[C@@H](C(=O)N[C@H](C(=O)N(C)[C@@H](CCCCN)C(N)=O)C(c1ccccc1)c1ccccc1)N(C)C(=O)[C@@H]1CSSC[C@H](NC(=O)[C@@H]2CCCN2C(=O)[C@@H](NC(=O)[C@H](Cc2c[nH]cn2)NC(=O)[C@H]([C@@H](C)O)N(C)C(=O)[C@H](CCC(=O)OC)NC(=O)CC(C)C)C(c2ccccc2)c2ccccc2)C(=O)N1 [compound 149] (Isovaleryl-E(OMe)[NMeT]H[Dip]PCC[NMeK](X5)[Dip][NMeK]-NH2; disulfide 6-7)
1 to 10	CCCCCCCCCCCCCCCC(=O)NCC[N+](C)(C)CC(=O)NCCCC[C@@H](C(=O)N[C@H](C(=O)N[C@H](CCCCN)C(N)=O)C(c1ccccc1)c1ccccc1)N(C)C(=O)[C@@H]1CSSC[C@H](NC(=O)[C@@H]2CCCN2C(=O)[C@@H](NC(=O)[C@H](Cc2cnc[nH]2)NC(=O)[C@@H]2[C@H](O)CCN2C(=O)[C@H](CCC(=O)O)NC(=O)CC(C)C)C(c2ccccc2)c2ccccc2)C(=O)N1 [compound 152] (Isovaleryl-E[Pro(3R-OH)]H[Dip]PCC[NMeK](X5)[Dip][dK]-NH2; disulfide 6-7)
100 to 500	COC(=O)CC[C@H](NC(=O)CC(C)C)C(=O)N(C)[C@H](C(=O)N[C@@H](Cc1c[nH]cn1)C(=O)N[C@H](C(=O)N1CCC[C@H]1C(=O)N[C@H]1CSSC[C@@H](C(=O)N(C)[C@@H](CCCCNC(=O)C[N+](C)(C)CCNC(=O)CCCCCCCCCCCCCCCCC(=O)O)C(=O)N[C@H](C(N)=O)C(c2ccccc2)c2ccccc2)NC1=O)C(c1ccccc1)c1ccccc1)[C@@H](C)O [compound 186] (Isovaleryl-E(OMe)[NMeT]H[Dip]PCC[NMeK](X1)[Dip]-NH2; disulfide 6-7)
100 to 500	CC(C)CC(=O)N[C@@H](CCC(=O)O)C(=O)N(C)[C@H](C(=O)N[C@@H](Cc1c[nH]cn1)C(=O)N[C@H](C(=O)N1CCC[C@H]1C(=O)N[C@H]1CSSC[C@@H](C(=O)N(C)[C@@H](CCCCNC(=O)CCCCCNC(=O)C[N+](C)(C)CCNC(=O)CCCCCCCCCCCCCCCCC(=O)O)C(=O)N[C@H](C(N)=O)C(c2ccccc2)c2ccccc2)NC1=O)C(c1ccccc1)c1ccccc1)[C@@H](C)O [compound 189] (Isovaleryl-E[NMeT]H[Dip]PCC[NMeK]([Ahx-X1])[Dip]-NH2; disulfide 6-7)
1 to 10	CCCCCCCCCCCCCCCC(=O)NCCCCCC(=O)NCCCC[C@@H](C(=O)N[C@H](C(N)=O)C(c1ccccc1)c1ccccc1)N(C)C(=O)[C@@H]1CSSC[C@H](NC(=O)[C@@H]2CCCN2C(=O)[C@@H](NC(=O)[C@H](Cc2cnc[nH]2)NC(=O)[C@H]([C@@H](C)O)N(C)C(=O)[C@H](CCC(=O)O)NC(=O)CC(C)C)C(c2ccccc2)c2ccccc2)C(=O)N1 [compound 172] (Isovaleryl-E[NMeT]H[Dip]PCC[NMeK]([Ahx-Palmitoyl])[Dip]-NH2; disulfide 6-7)
